Data on 5 compounds can be found in US20230227392A1, “A APPLICATION OF CYATHANE DITERPENOIDS IN PREPARATION OF DRUGS FOR TREATING NEUROINFLAMMATION” (Northwest A&F University, priority 2022, published 2023).

What all share (format): cell-based, mouse
Assay [1] concerns LPS-induced BV-2 cells. As to the kind of experiment: M1/M2 marker cytokine secretion by ELISA. To be noted: for production of IL-1β / production of IL-6 / production of IL-10 / production of TNF-α: 3 and 10 μM, 1 h pretreatment then LPS 24 h, effect enhanced as concentration increases, FIG. 4. As for the experimental part: To further evaluate the role of 1 and 6 in M1 polarization of the LPS-induced microglia, the release of pro-inflammatory M1 cytokines (including TNF-α, IL-6 and IL-1β) and anti-inflammatory M2 cytokines (including IL-10) in the LPS-induced BV-2 cells was detected by ELISA. The BV-2 cells were incubated in a 6-well plate (2 mL/well) at a density of 2×10^5 cfu, cultured in a constant-temperature incubator of 5% CO2 at 37° C. for 24 h, then pretreated with different concentrations of compounds 1 and 6 (3 μM, 10 μM), LPS (1 μg/mL) and DMSO for 1 h, and then induced by the LPS for 24 h. Supernatant of the cell culture medium was collected, and the concentrations of TNF-α, IL-6, IL-10 and IL-1β were measured according to manufacturer's instructions.
On the technique in general: An ELISA detects its analyte on a solid surface through an enzyme-linked reagent.

The test system of assay [2] is LPS-induced BV-2 cells. Put plainly: mRNA levels of M1/M2 biomarkers by qRT-PCR. To be noted: FIG. 3; for mRNA expression of COX-2 induced by the LPS / mRNA level of IL-10: 10 μM / tested concentration; for mRNA expression of IL-6 induced by the LPS / mRNA level of ARG-1: 10 μM; for mRNA expression of TNF-α induced by the LPS: 1 at 10 μM; for mRNA level of IL-10 / mRNA level of ARG-1: M2 marker. How it is done:
In order to detect the regulation of M1/M2 phenotype switch by 1 and 6, the effects on the mRNA expression of representative M1 and M2 biomarkers in the LPS-stimulated BV-2 cells were evaluated. The cells were incubated into a 6 cm of culture dish (5 mL/dish) at a density of 2×10^5 cfu, and cultured in a constant-temperature incubator of 5% CO2 at 37° C. for 12 h. According to the manufacturer's instructions, total RNA was extracted by Trizol, and concentration and purity thereof were measured by a UV-Vis spectrophotometer. 2 μg of isolated RNA was reversely transcribed into cDNA by Prime Script RTMaster Mix kit. By using a Syr Green quantitative RT-PCR kit, an mRNA level was evaluated by qRT-PCR response. β-actin was used as an internal standard. The primer sequences are as follows (Table 1).

The subject of assay [3] is LPS-induced BV-2 microglia. As to the kind of experiment: Inhibition of nitric oxide (NO) production, Griess method. To be noted: 1 μg/mL LPS + 10 μM compound, 24 h, FIG. 2. How it is done: The mouse microglia (BV-2) were cultured in the DMEM culture medium containing 10% of fetal bovine serum (FBS) and 1% of antibiotics (100 U/mL of […] and penicillin) at 37° C. in the incubator of 5% CO2.
NO is an important inflammatory mediator. Excessive production of NO is common in neurons and glial cells of brains with ND^[8]. Griess reagent was configured to evaluate the influence on NO production in order to measure the anti-inflammatory effects of sarcodonin A and its derivative in LPS-induced BV-2 microglia. Before adding the detection reagent, BV-2 cells (2×10^5/mL) were incubated in the 96-well plate and cultured at 37° C. for 24 h. The experimental groups were divided into a control group (DMSO), an LPS-treated group ([…] of LPS) and a compound-treated group (1 μg/mL of LPS+10 μM compound), and then incubation was performed for 24 h. The nitrite concentration in the culture medium was measured by a commercial analysis kit. The main principle was based on the griess method. Supernatant of the BV-2 cells (50 μL) reacted with the griess reagent (50 μL of griess regent I and 50 μL of griess regent II). The absorbance was measured at 540 nm on the Bio-Tek micropore plate reader, and the nitrite concentration was calculated by a nitrite standard curve with sodium nitrite as the standard.
The inhibition rate %=(ALPS−Acompound)/(ALPS−Ablank)×100;
For orientation: The Griess reaction detects nitrite, a stable product of nitric oxide.

Assay [4] relates to LPS-induced BV-2 cells. As to the kind of experiment: M1/M2 marker protein expression by Western blotting. The note with it: FIG. 5; for M1/M2 polarization of the LPS-induced BV-2 cells: conclusion from marker expression. How it is done: The protein expression of iNOS, COX-2(M1 marker) and ARG-1(M2 marker) was analyzed by Western blotting. The BV-2 cells (5×10^5 cfu) cultured in a 6 cm dish were pretreated with 1 or 6 ([…]) respectively for 1 h, and then 1 μg/ml LPS was added for 24 h. The cells were lysed in an ice-cold RIPA lysis buffer with a mixed solution of 10 mM of PMSF and 1% of protein inhibitors. The cytosol lysate was centrifuged at 4° C. at 12000 rpm for 30 minutes. Total protein was isolated from the lysate and their concentration was determined by BCA.
A sample was separated by 8%-12% SDS-PAGE and transferred to a […] PVDF membrane. The membrane was blocked with 5% BSA in TBST (20 mM of Tris-HCl, 150 mM of NaCl, 0.1% of Tween-20) for 1 h at room temperature, and then incubated with appropriate primary antibodies: anti-β-tubulin (1:1000), anti-GAPDH (1:1000), anti-iNOS (1:500), anti-COX-2 (1:1000) and anti-ARG-1 (1:500) at 4° C. overnight. The membrane was washed in the TBST for 3×5 minutes, and then incubated with the secondary antibody bound to appropriate peroxidase (HRP) and left at room temperature for 1 h. The blot was washed in the TBST for 3×5 minutes and exposed to an ECL chemiluminescence reagent. At last, the signal was detected by the Bio-Rad ChemiDoc XRS+ system.

Assay [5] concerns LPS-induced BV-2 microglia. As to the kind of experiment: MAPK phosphorylation (ERK1/2, JNK, p38 MAPK) by Western blotting. To be noted: Western blot, 1 h pretreatment then LPS 1 μg/mL 30 min; FIG. 6. How it is done: Previous studies have shown that the over-activation of MAPK signaling cascade is related to neuroinflammatory reaction^[9-10]. In order to clarify the action mode of 6 in reversing the M1 polarization of the microglia, the effects of 6 on phosphorylation levels of ERK1/2, […] and p38 MAPK in the LPS-induced BV-2 microglia are further studied. BV-2 cells (5×10^5 cfu) cultured in a 6 cm dish are pretreated with compound 1 or 6 ([…]) respectively for 1 h, and then added with the LPS (1 μg/mL) for 30 min. The similar method is used by Western blotting, and the primary antibodies are: […] (1:1000), anti-GAPDH (1:1000), anti-ERK1/2 (1:1000), anti-phosphorylated ERK1/2 (1:1000), anti-p38 MAPK (1:2000), anti-phosphorylated p38 MAPK (1:1000), anti-JNK (1:2000) and anti-phosphorylated JNK (1:1000).
(In general: A western blot detects proteins with antibodies after separation by electrophoresis.)

For assay [6], the system named is LPS-induced BV-2 cells. Put plainly: Nuclear translocation of NF-κB subunit p65 by Western blotting. The note with it: Western blot of nuclear and cytoplasmic parts. The source says:
The nuclear translocation of NF-κB subunit p65 as an activation index of NF-κB is examined. The cells were collected in the same way for Western blotting. A extraction kit is configured to isolate and extract nuclear and cytoplasmic parts according to the instructions. The primary antibodies are anti-NF-κB p65 (1:1000), anti-Lamin B1 (1:1000) and anti-GAPDH (1:1000).

The mark [7] stands for this setting: Western blot, 1 h pretreatment then 1 μg/ml LPS 24 h.

Structures are written as SMILES. Entries after “also recorded” stand apart in the source; their conditions may differ.

As for `CC(CO)C1=C2C3=CC=C(C=O)C[C@H](O)[C@]3(C)CC[C@@]2(C)CC1` (some centres unmarked) [Compound 1, sarcodonin A], in the assay on LPS-induced BV-2 cells [1], the “production of IL-1β” value is “inhibitory effect”, the “production of IL-6” value is “inhibitory effect”, the “production of IL-10” value is given as “promoting effect” and the “production of TNF-α” value is reported as “inhibitory effect”. In the assay with LPS-induced BV-2 cells [2] (M1 marker), the “mRNA expression of COX-2 induced by the LPS” value was “does not affect”, the “mRNA expression of IL-6 induced by the LPS” value was “inhibits” and the “mRNA expression of TNF-α induced by the LPS” value is listed as “inhibits”. In the assay on LPS-induced BV-2 cells [2], the “mRNA level of IL-10” value is given as “does not affect” and the “mRNA level of ARG-1” value is given as “enhance”. Besides, in assay [3], the “inhibition of NO production (in words)” value is recorded as “can inhibit”. Further, in the assay on LPS-induced BV-2 cells [4] (setting [7]), the “protein expression of ARG-1” value is given as “promotes” and the “protein expression of LPS-induced iNOS” value is given as “inhibits”. The “M1/M2 polarization of the LPS-induced BV-2 cells” value with LPS-induced BV-2 cells [4] is “inhibit the M1 polarization and enhance M2 polarization”.

Turning to `CC(COC(=O)c1ccccc1Cl)C1=C2C3=CC=C(C=O)CC(O)C3(C)CCC2(C)CC1` (centres unmarked) [Compound 3], the “inhibition of NO production (in words)” value in assay [3] is reported as “higher inhibitory activity”.

Consider `CC(COC(=O)c1ccccc1Br)C1=C2C3=CC=C(C=O)CC(O)C3(C)CCC2(C)CC1` (centres unmarked) [Compound 4], for which the “inhibition of NO production (in words)” value in assay [3] is on record as “higher inhibitory activity; also recorded: highest inhibitory activity in o-halogen-substituted 19-O-benzoyl derivatives”.

With `CC(COC(=O)c1ccc(Br)cc1)C1=C2C3=CC=C(C=O)CC(O)C3(C)CCC2(C)CC1` (centres unmarked) [Compound 6], in assay [5], the “activation (phosphorylation) of ERK1/2 induced by the LPS” value is listed as “significantly inhibits”, the “activation (phosphorylation) of INK induced by the LPS” value is recorded as “significantly inhibits” and the “phosphorylation of p38 MAPK” value was “little effect”. In the assay on LPS-induced BV-2 cells [1], the “production of IL-1β” value is recorded as “inhibitory effect”, the “production of IL-6” value is reported as “inhibitory effect”, the “production of IL-10” value is given as “promoting effect” and the “production of TNF-α” value is recorded as “inhibitory effect”. The “comparison of effect on cytokine production at the same concentration” value with LPS-induced BV-2 cells [1] (IL-6, IL-1β, TNF-α, IL-10, FIG. 4) is “more effective than 1”. Also, in the assay on LPS-induced BV-2 cells [6], the “LPS-stimulated nuclear translocation of NF-κB p65” value was “significantly inhibits”. Besides, in the assay with LPS-induced BV-2 cells [2] (M1 marker), the “mRNA expression of COX-2 induced by the LPS” value was “inhibits”, the “mRNA expression of IL-6 induced by the LPS” value is on record as “inhibits”, the “mRNA expression of TNF-α induced by the LPS” value is “inhibits” and the “mRNA expression of IL-1β induced by the LPS” value is reported as “inhibits”. In addition, the “mRNA expression of iNOS induced by the LPS” value with LPS-induced BV-2 cells [2] (M1 marker) is listed as “inhibits”. In the assay with LPS-induced BV-2 cells [2], the “mRNA level of IL-10” value is given as “promotes” and the “mRNA level of ARG-1” value is “promotes”. In assay [3], the “inhibition of NO production (in words)” value was “higher inhibitory activity; also recorded: strongest activity”. The “inhibitory activity on NO production (inhibition rate)” value in assay [3] (compared with the LPS control group) is 55%. Also, in the assay with LPS-induced BV-2 cells [4] (setting [7]), the “protein expression of ARG-1” value is reported as “more obvious promoting effect”, the “protein expression of COX-2” value is listed as “more obvious inhibitory effect” and the “protein expression of LPS-induced iNOS” value is “more obvious inhibitory effect”. The “M1/M2 polarization of the LPS-induced BV-2 cells” value with LPS-induced BV-2 cells [4] was “inhibit the M1 polarization and enhance M2 polarization”.

Regarding `CC(=O)OCC(C)C1=C2C3=CC=C(C=O)CC(OC(C)=O)C3(C)CCC2(C)CC1` (centres unmarked) [Compound 7], the “inhibition of NO production (in words)” value in assay [3] is on record as “strong inhibitory effect similar to that of 6”.
